Source: US20150224190A1, “Combination of a phosphoinositide 3-kinase inhibitor and an inhibitor of the IL-8/CXCR interaction” (priority 2012, published 2015)

Legend:
pS6 = assay: Target inhibition after single doses: pS6 levels in breast cancer lines; format: cell-based, human; conditions: up to 20 hours after treatment, MDA 468, MDA 231 LM2 and mouse 4T-1 breast cancer lines
Method: MDA231, lung metastatic subline MDA231 LM2 (Minn et al., 2005) and SUM159 human breast cancer cells, as well as the Balb/c tumor-derived mammary cancer lines 4T-1 and 168FARN (Aslakson and Miller, 1992), were propagated as previously described. All other cell lines were obtained from and were cultured according to the protocols of ATCC. For treatment with inhibitors, cells were synchronized without serum overnight and then supplemented with culture medium containing the inhibitor(s). For experiments with doxycycline-inducible shRNAs, 500 ng/ml of doxycycline (Sigma) was added to the medium and experiments performed 48 h later. Cell viability assays, cell cycle and cell death measurements were performed at 0.5% FCS in order to avoid masking effects of growth factors present under full-serum conditions.
(§1) Cells for Western Blotting and ELISA were lysed with RIPA buffer. […]
The present inventors applied single doses of COMPOUND A, a dual PI3K and mTOR inhibitor, and analyzed target inhibition and potential signaling pathway crosstalks after 2, 4, 8 and 20 h hours of treatment. […] While RAD001 readily activated JAK2 starting at 4 hours of treatment, they observed a later response with BKM120 treatment starting at 8 hours after adding the compound. […]

JAK2/STAT5 = JAK2/STAT5 activation in human primary triple-negative breast tumors grown in immunodeficient mice; format: in vivo; conditions: 30 mg/kg BEZ235 for 4 days vs vehicle
Method: FIG. 4. BEZ235 treatment activates JAK2/STAT5 and IL-8 secretion in human primary triple-negative breast tumors Immunoblots of lysates from primary triple-negative breast tumors grown in immunodeficient mice and treated for 4 days with 30 mg/kg BEZ235 or vehicle (VHC). pJAK2 levels were measured in triplicate by ELISA and normalized to total JAK2 levels (Y-axis).
as §1
For assessing pJAK2 levels, an ELISA assay (Tyr1007/1008, Invitrogen) was applied because of cross-reactivity of all pJAK2 antibodies tested. Interleukin-8 levels in RIPA lysates, cell culture supernatants and mouse tail vein blood plasma were measured by ELISA, as well (Biolegend). […]

In the case of `Cn1c(=O)n(-c2ccc(C(C)(C)C#N)cc2)c2c3cc(-c4cnc5ccccc5c4)ccc3ncc21` [COMPOUND A, 2-methyl-2-[4-(3-methyl-2-oxo-8-quinolin-3-yl-2,3-dihydro-imidazo[4,5-c]quinolin-1-yl)-phenyl]-propionitrile], the pS6 levels (pS6) is reported as “completely blocked” and the “JAK2/STAT5 activation (pJAK2 normalized to total JAK2, immunoblots)” value (JAK2/STAT5) is reported as “activates”.
